Test results as given in PMC6100113, “Involvement of CYP4F2 in the Metabolism of a Novel Monophosphate Ester Prodrug of Gemcitabine and Its Interaction Potential In Vitro” (Molecules : A Journal of Synthetic Chemistry and Natural …, 2018).
One block for each molecule: values may come before it.

Assays:
CYP4F2 [1] = target: T1, CYP4F2 (Homo sapiens, UniProt P78329); test: Reaction phenotyping with recombinant CYP4F2; type: in vitro ADME; conditions: Compound-3 1 μM with recombinant CYP4F2 50 nM, NADPH, 37 °C (Figure S2)
T1 construct: purchased Corning Gentest
T1 sequence (P78329 5-520): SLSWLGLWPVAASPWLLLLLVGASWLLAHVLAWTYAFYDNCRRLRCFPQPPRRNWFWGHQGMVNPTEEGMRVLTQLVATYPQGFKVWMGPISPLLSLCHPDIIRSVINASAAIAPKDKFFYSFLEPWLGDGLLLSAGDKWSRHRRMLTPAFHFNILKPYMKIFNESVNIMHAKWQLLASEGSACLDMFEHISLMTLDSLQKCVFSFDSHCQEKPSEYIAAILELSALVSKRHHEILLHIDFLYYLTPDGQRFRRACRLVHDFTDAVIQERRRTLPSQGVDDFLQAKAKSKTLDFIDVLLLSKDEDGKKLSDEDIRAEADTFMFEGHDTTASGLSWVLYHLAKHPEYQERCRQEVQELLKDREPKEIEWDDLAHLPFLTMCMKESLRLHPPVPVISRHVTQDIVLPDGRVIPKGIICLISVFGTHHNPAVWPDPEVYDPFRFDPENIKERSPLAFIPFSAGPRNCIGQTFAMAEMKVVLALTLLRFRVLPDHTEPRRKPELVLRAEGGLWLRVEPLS
Description: Compound-3 was incubated separately with human cDNA-expressed cytochrome P450s (CYP1A2, CYP2B6, CYP2C8, CYP2C9, CYP2C19, CYP2D6, CYP3A4, CYP4A11, CYP4F2 and CYP4F3). The incubation mixtures contained individual CYP isoenzymes (50 nM), potassium phosphate buffer (100 mM, pH 7.4), NADPH (1 mM), and Compound-3 (1 µM). The final volume of the incubation mixture was 50 µL. Before the start of the incubation, reaction mixtures were warmed up at 37 °C for 10 min. The reaction was initiated with the addition of NADPH and the incubations were performed at 37 °C in a water bath. […] Control samples without NADPH but substrates were included. The samples were then centrifuged and aliquots of 10 μL of the supernatants were transferred onto LC-MS/MS for the analysis of Compound-3 and M4 (carboxylic acid) levels.
The following are available online. Figure S1. Gemcitabine Formation from Compound-3 Hydrolysis as a function of alkaline phosphatase protein concentrations. Compound-3 (1 μM) was incubated with alkaline phosphatase concentrations ranging from 0.01–0.2 mg/mL at 37 °C (n = 3). Figure S2. Metabolites of Compound-3 in human recombinant CYP4F2. Compound-3 (1 μM) was incubated with human recombinant CYP4F2 (50 nM) in the presence of NADPH at 37 °C (n = 3).

[2] = Metabolite identification by UPLC/Triple TOF MS in human hepatocytes; type: in vitro ADME; set-up: key: √: metabolites were detected by high-resolution mass spectrometry; conditions: Compound-3 10 μM, 1 × 10^6 cell/mL, 60 min, HRMS
Description: (§1) For metabolite identification, a higher concentration of Compound-3 (10 μM) was incubated with liver microsomes (1 mg/mL) in the presence of NADPH (1 mM) and primary human hepatocytes at a density of 1 × 10^6 cell/mL. Samples were collected at 0 min and 60 min with the addition of ice-cold acetonitrile. After vortexing and centrifugation, the supernatant was transferred into a new tube and evaporated to dryness. The samples were then reconstituted in 100 μL of water and methanol (v/v, 9:1). An aliquot of 10 μL of reconstituted solution was injected into UPLC/Triple TOF 5600^+ MS for metabolite identification.
(§2) Identification of Compound-3 metabolites was carried out using Acquity UPLC/Triple TOF 5600^+ system. Chromatographic separation for Compound-3 and its metabolites were achieved by an Acquity UPLC HSS T3 column (100 × 2.1 mm i.d., […]; Waters Corp.) maintained at 40 °C. The mobile phase was a mixture of 0.02% formic acid in 5 mM ammonium acetate (A) and methanol (B). The gradient elution was started from 2% B and maintained for 4 min, then increased linearly to 75% B over the next 4 min and maintained for 8 min. […] The flow rate was 0.4 mL/min and the eluent was monitored by UV detection at 280 nm.
(§3) For mass detection, a Triple TOF 5600^+ mass spectrometer (AB Sciex, Framingham, MA, USA) was operated in positive ion electrospray (ES-positive) mode with the source temperature at 500 °C and scan range from m/z 100 to 1000 Da. Other parameters were set as follows: ion spray voltage, 5500 V; decluttering potential, 80 V; curtain gas, 40 psi; ion source gas 1, 55 psi; and ion source gas 2, 50 psi. Collision energies of 25 and 65 eV were used for TOF MS and product ion scans, respectively, and a collision energy spread of 20 was used in the MS/MS analysis. Information-dependent acquisition (IDA), together with real-time multiple mass defect filter, was used to trigger acquisition of MS/MS spectra.

[3] = Metabolite identification by UPLC/Triple TOF MS in rat intestinal microsomes; type: in vitro ADME; set-up: key: √: metabolites were detected by high-resolution mass spectrometry; conditions: Compound-3 10 μM, NADPH, 60 min, HRMS
[4] = Metabolite identification by UPLC/Triple TOF MS in human intestinal microsomes; type: in vitro ADME; set-up: key: √: metabolites were detected by high-resolution mass spectrometry; conditions: Compound-3 10 μM, NADPH, 60 min, HRMS
Description: as §1, §2, §3

[5] = Metabolite identification by UPLC/Triple TOF MS in human liver microsomes; type: in vitro ADME; set-up: key: √: metabolites were detected by high-resolution mass spectrometry; conditions: Compound-3 10 μM, 1 mg/mL microsomes, NADPH, 60 min, HRMS
Description: as §1, §2, §3

[6] = Metabolite identification by UPLC/Triple TOF MS in rat liver microsomes; type: in vitro ADME; set-up: key: √: metabolites were detected by high-resolution mass spectrometry; conditions: Compound-3 10 μM, 1 mg/mL microsomes, NADPH, 60 min, HRMS
Description: as §1, §2, §3

alkaline phosphatase = test: Hydrolysis of Compound-3 by alkaline phosphatase (gemcitabine formation); type: in vitro ADME; set-up: key to detected in matrix ALP: √: metabolites were detected by high-resolution mass spectrometry; conditions: incubation of Compound-3 with alkaline phosphatase, HRMS
Description: Compound-3 was incubated with alkaline phosphatase, and the linearity of gemcitabine formation as a function of time and protein concentration was first examined. The reaction mixtures consisted of alkaline phosphatase, 100 mM phosphate buffer (pH 7.4) and Compound-3 (10 μM). The final volume of the incubation mixture was 200 μL. The mixture was warmed up at 37 °C for 2 min prior to the initiation of the reaction with the addition of the enzyme. At specified time points, 25 μL of the incubation mixtures was added to 100 μL cold acetonitrile containing the internal standard to terminate the reaction. Levels of gemcitabine were determined by LC-MS/MS. […] Compound-3 was tested at concentrations ranging from 0 to 200 μM. Kinetic parameters of Compound-3 in alkaline phosphatase were calculated using GraphPad Prism (Version 6.0, GraphPad Software Inc., San Diego, CA) and nonlinear regression analysis. Equation used was as the following (the Michaelis-Menten equation):V = (Vmax × [S])/(Km + [S])(1) where V is the rate of metabolite formation, Vmax is the maximum velocity, Km is the Michaelis constant (substrate concentration at 0.5 Vmax), and [S] is the substrate concentration.

[7] = system: Compound-3 metabolism in human liver microsomes; test: Inhibition of Compound-3 metabolism in HLM by selective chemical inhibitors of CYP isozymes; type: in vitro ADME; conditions: HLM 0.2 mg/mL, 1 μM Compound-3; HET-0016 1 µM, ketoconazole 1 µM, quercetin 10 µM, other inhibitors at the concentrations of b45
Description: Incubation contained 0.2 mg/mL human liver microsomes, 100 mM phosphate buffer (pH 7.4), 1 mM NADPH, 1 μM Compound-3, and inhibitors at specified concentrations. Compound-3 remaining was calculated based on concentrations after incubation in the presence or absence of respective inhibitors.

CYP4F2 [8] = target: T1, CYP4F2; test: CYP4F2-mediated drug interaction (inhibition of CYP4F2); type: in vitro ADME; conditions: substrate Compound-3 1 μM, CYP4F2 10 nM, 10 min, M4 formation; read-out: IC50, inhibition of CYP4F2 mediated metabolism of Compound-3
Description: CYP4F2-mediated drug interactions were examined in two separate setting: pafuramidine as the substrate and Compound-3 as the inhibitor; and Compound-3 as the substrate and pafuramidine as the inhibitor. The reaction system contained 10 nM CYP4F2, 100 mM phosphate buffer (pH 7.4), 1 mM NADPH, and substrate (pafuramidine 1.5 μM or Compound-3 1 μM). Inhibitor (Compound-3 or pafuramidine) concentrations ranged from 0 to 10,000 nM. The incubation time was 5 min for pafuramidine and 10 min for Compound-3. Incubation temperature was 37 °C. LC-MS/MS analysis was performed as described above for the levels of DB775 or M4 (carboxylic acid metabolite of Compound-3).

[9] = substrate: CCCCCCCCCCCCCCCCCCOCCOP(=O)(O)OCC1OC(n2ccc(N)nc2=O)C(F)(F)C1O; test: Formation kinetics of M4 (carboxylic acid) from Compound-3 by CYP4F2; type: in vitro ADME, human; conditions: other: CYP4F2 10 nM, 10 min, substrate inhibition model, estimated; pH 7.4; 37.0 °C
Description: To investigate the formation kinetics of carboxylic acid metabolite (M4) from Compound-3, varying concentrations of Compound-3 (0–10 µM) were incubated with 10 nM CYP4F2 and 1 mM NADPH in 100 mM phosphate buffer (pH 7.4). The reactions were carried at 37 °C for 10 min and terminated with the addition of ice-cold acetonitrile containing the internal standard. Samples were then centrifuged, and aliquots of 10 μL of the supernatants were analyzed by LC-MS/MS for M4 levels.
Kinetic parameters of Compound-3 in recombinant human CYP4F2 were calculated using Enzyme Kinetics Modules of SigmaPlot (Version 14.0, Systat Software, San Jose, CA, USA). An uncompetitive substrate inhibition equation was also used:V = (Vmax × [S])/{Km + [S] × (1 + [S]/Ki)}(2) where Ki is the disassociation constant describing the inhibitor-enzyme interaction.

incubation time at which metabolite formation peaked (CYP4F2 [1]): 5 min | detected in matrix Human Hepatocytes [2]: √ | detected in matrix RIM [3]: √ | detected in matrix HIM [4]: √ | detected in matrix HLM [5]: √
Molecule: Nc1ccn(C2OC(COP(=O)(O)OCCOCCCCCCCCCCCCCCCCCC=O)C(O)C2(F)F)c(=O)n1 (stereo not shown) [Compound M2]

incubation time at which metabolite formation peaked (CYP4F2 [1]): 5 min | detected in matrix Human Hepatocytes [2]: √ | detected in matrix RIM [3]: √ | detected in matrix HIM [4]: √ | detected in matrix RLM [6]: √ | detected in matrix HLM [5]: √
Molecule: Nc1ccn(C2OC(COP(=O)(O)OCCOCCCCCCCCCCCCCCCCCCO)C(O)C2(F)F)c(=O)n1 (stereo not shown) [Compound M3]

incubation time at which metabolite formation peaked (CYP4F2 [1]): 60 min | detected in matrix Human Hepatocytes [2]: √ | detected in matrix RIM [3]: √ | detected in matrix HIM [4]: √ | detected in matrix RLM [6]: √ | detected in matrix HLM [5]: √
Molecule: Nc1ccn(C2OC(COP(=O)(O)OCCOCCCCCCCCCCCCCCCCCC(=O)O)C(O)C2(F)F)c(=O)n1 (stereo not shown) [Compound M4]

More lines, now with the values behind:

Molecule: Nc1ccn([C@@H]2O[C@H](CO)[C@@H](O)C2(F)F)c(=O)n1 [Gemcitabine, 2′,2′-difluorodeoxycytidine]
detected in matrix ALP (alkaline phosphatase): √

Molecule: CC(=O)N1CCN(c2ccc(OCC3COC(Cn4ccnc4)(c4ccc(Cl)cc4Cl)O3)cc2)CC1 (stereo not shown) [ketoconazole]
inhibition of Compound-3 metabolism in HLM [7]: moderate inhibition

Molecule: CONC(=N)c1ccc(-c2ccc(-c3ccc(C(=N)NOC)cc3)o2)cc1 [pafuramidine, reference compound]
IC50 (CYP4F2 [8]): 240 nM

Molecule: O=c1c(O)c(-c2ccc(O)c(O)c2)oc2cc(O)cc(O)c12 [quercetin]
inhibition of Compound-3 metabolism in HLM [7]: moderate inhibition

B1: CYP4F2 (Homo sapiens) (protein)
chain: T1 sequence (P78329 5-520)
notes: purchased Corning Gentest
Km [9]: 0.69 µM
